Read-outs that look alike come from different tables or passages of the source. One block for each compound: values may come before it. Square brackets hold non-standard residues; d marks the D form. Ends that are not written are not given here. Peptide text beside a SMILES is read from it. Cit = NC(=O)NCCC[C@H](N)C(=O)O
Legend:
HLA-DRB1*01:01 = molecular target: T1, HLA-DRB1*01:01 (Homo sapiens, UniProt P01903+P01911, A100R/D57E/F55L/F60I/F76Y/I96L/L162R/M171V/P40L/Q125E/R42F/V115G/Y59C); assay: HLA class II peptide binding, inhibition of radiolabeled peptide binding to purified MHC
T1 construct: EBV transformed homozygous cell lines were used as sources of MHC molecules; endogenous in cells; host or cells: EBV transformed homozygous cell lines

HLA-DRB1*04:01 = molecular target: T2, HLA-DRB1*04:01 (Homo sapiens, UniProt P01903+P01911, A100K/A169T/F76Y/I96L/K127E/L162R/M171V/N62H/P40V/Q125Y/R42H/S133A/S149N/S66Y/V115G/V209L/W38E); assay: as above
T2 construct: EBV transformed homozygous cell lines were used as sources of MHC molecules; endogenous in cells; host or cells: EBV transformed homozygous cell lines

[1] = citrullinated 15-mer peptide (X = citrulline), purified HLA-DRB1*01:01, read-out: DRB1*01:01 binding capacity, Cit peptide (IC50 nM)
[2] = citrullinated 15-mer peptide (X = citrulline), purified HLA-DRB1*04:01, read-out: DRB1*04:01 binding capacity, Cit peptide (IC50 nM)
[3] = citrullinated peptide as listed (X at Cit position), read-out: DRB1*01:01 binding capacity Cit peptide (IC50 nM)
[4] = value of the wild-type (non-citrullinated) counterpart of the listed peptide, read-out: DRB1*01:01 binding capacity WT peptide (IC50 nM)
[5] = citrullinated peptide as listed (X at Cit position), read-out: DRB1*04:01 binding capacity Cit peptide (IC50 nM)
[6] = wild-type (unmodified Arg) 15-mer peptide, purified HLA-DRB1*01:01, read-out: DRB1*01:01 binding capacity, WT peptide (IC50 nM)
[7] = wild-type (unmodified Arg) 15-mer peptide, purified HLA-DRB1*04:01, read-out: DRB1*04:01 binding capacity, WT peptide (IC50 nM)
[8] = read-out: DRB1*01:01 binding capacity, WT peptide (IC50 nM)
[9] = read-out: DRB1*04:01 binding capacity, WT peptide (IC50 nM)

Compound: CC(C)[C@H](NC(=O)[C@H](CCC(N)=O)NC(=O)[C@H](CCCNC(=N)N)NC(=O)[C@H](CCCNC(N)=O)NC(=O)[C@H](Cc1ccc(O)cc1)NC(=O)[C@H](CCC(=O)O)NC(=O)[C@@H](NC(=O)[C@H](CO)NC(=O)[C@H](CCC(=O)O)NC(=O)[C@H](CCC(N)=O)NC(=O)[C@H](CCCCN)NC(=O)[C@H](C)NC(=O)[C@@H](N)CCC(N)=O)[C@@H](C)O)C(=O)N[C@@H](CCC(N)=O)C(=O)N[C@@H](CO)C(=O)O [QAKQESTEYXRQVQS] (H-QAKQESTEY[Cit]RQVQS-OH)
IC50 (HLA-DRB1*01:01; [1]): 9030 nM
IC50 (HLA-DRB1*04:01; [2]): > 40000 nM

Compound: CSCC[C@H](NC(=O)[C@H](CCC(=O)O)NC(=O)[C@H](CCC(=O)O)NC(=O)[C@H](CCC(=O)O)NC(=O)[C@H](Cc1ccc(O)cc1)NC(=O)[C@H](CC(C)C)NC(=O)[C@H](CC(=O)O)NC(=O)CNC(=O)[C@@H](N)CC(C)C)C(=O)N[C@@H](CCCNC(=N)N)C(=O)N[C@@H](CCC(=O)O)C(=O)N[C@@H](CC(C)C)C(=O)N[C@@H](CCCNC(=N)N)C(=O)N[C@@H](CCCNC(=N)N)C(=O)N[C@@H](CCC(N)=O)C(=O)O [Vimentin 146 WT]
IC50 (HLA-DRB1*01:01; [8]): 9380 nM
IC50 (HLA-DRB1*04:01; [9]): 38500 nM

Compound: CC(C)C[C@H](NC(=O)[C@@H](N)CO)C(=O)N[C@@H](Cc1ccc(O)cc1)C(=O)N[C@@H](C)C(=O)N[C@@H](CO)C(=O)N[C@@H](CO)C(=O)N1CCC[C@H]1C(=O)NCC(=O)NCC(=O)N[C@H](C(=O)N[C@@H](Cc1ccc(O)cc1)C(=O)N[C@@H](C)C(=O)N[C@H](C(=O)N[C@@H](CCCNC(=N)N)C(=O)N[C@@H](CO)C(=O)O)[C@@H](C)O)C(C)C [Vimentin 51 WT]
IC50 (HLA-DRB1*01:01; [8]): 75 nM
IC50 (HLA-DRB1*04:01; [9]): 6110 nM

Compound: RSSVPGVRLLQDSVD [Vimentin 71 WT]
IC50 (HLA-DRB1*01:01; [8]): 261 nM
IC50 (HLA-DRB1*04:01; [9]): 4620 nM

Compound: CC(C)C[C@H](NC(=O)CNC(=O)[C@@H]1CCCN1)C(=O)N[C@@H](CCCNC(N)=O)C(=O)NCC(=O)N[C@@H](CC(C)C)C(=O)N1CCC[C@H]1C(=O)NCC(=O)N[C@@H](CCCCN)C(=O)N[C@@H](CC(=O)O)C(=O)NCC(=O)N[C@@H](CCC(=O)O)C(=O)N[C@H](C(=O)NCC(=O)N[C@@H](C)C(=O)O)[C@@H](C)O [PGLXGLPGKDGETGA] (H-PGL[Cit]GLPGKDGETGA-OH)
IC50 (HLA-DRB1*01:01; [1]): 109 nM
IC50 (HLA-DRB1*04:01; [2]): > 40000 nM

Results, then the compound that gave them:

IC50 (HLA-DRB1*01:01; [3]): 0.6 nM
IC50 (HLA-DRB1*01:01; [4]): 1.3 nM
IC50 (HLA-DRB1*04:01; [5]): 849 nM
Compound: CC[C@H](C)[C@H](N)C(=O)N[C@@H](CCCNC(=N)N)C(=O)N[C@@H](C)C(=O)N[C@@H](CCC(=O)O)C(=O)NCC(=O)N[C@@H](CC(N)=O)C(=O)N[C@@H](CO)C(=O)N[C@@H](CCCNC(N)=O)C(=O)N[C@@H](Cc1ccccc1)C(=O)N[C@H](C(=O)N[C@@H](Cc1ccc(O)cc1)C(=O)N[C@H](C(=O)N[C@@H](C)C(=O)N[C@@H](CC(C)C)C(=O)N[C@@H](CCCCN)C(=O)O)[C@@H](C)O)[C@@H](C)O [IRAEGNSXFTYTALK] (H-IRAEGNS[Cit]FTYTALK-OH)

IC50 (HLA-DRB1*01:01; [6]): 85 nM
IC50 (HLA-DRB1*04:01; [7]): > 40000 nM
Compound: AGEPGERGLKGHRGF [Collagen 1121 WT]

IC50 (HLA-DRB1*01:01; [6]): 625 nM
IC50 (HLA-DRB1*04:01; [7]): 11500 nM
Compound: ANYQDTIGRLQDEIQ [Vimentin 356 WT]

IC50 (HLA-DRB1*01:01; [1]): 470 nM
IC50 (HLA-DRB1*04:01; [2]): 4300 nM
Compound: CC[C@H](C)[C@H](NC(=O)[C@@H](N)CCC(=O)O)C(=O)N[C@@H](C)C(=O)N[C@H](C(=O)N[C@@H](Cc1ccc(O)cc1)C(=O)N[C@@H](CCCNC(=N)N)C(=O)N[C@@H](CCCCN)C(=O)N[C@@H](CC(C)C)C(=O)N[C@@H](CC(C)C)C(=O)N[C@@H](CCC(=O)O)C(=O)NCC(=O)N[C@@H](CCC(=O)O)C(=O)N[C@@H](CCC(=O)O)C(=O)N[C@@H](CO)C(=O)N[C@@H](CCCNC(N)=O)C(=O)O)[C@@H](C)O [EIATYRKLLEGEESX] (H-EIATYRKLLEGEES[Cit]-OH)

IC50 (HLA-DRB1*01:01; [3]): 7.1 nM
IC50 (HLA-DRB1*01:01; [4]): 29 nM
IC50 (HLA-DRB1*04:01; [5]): 153 nM
IC50 (HLA-DRB1*04:01; value of the wild-type (non-citrullinated) counterpart of the listed peptide, read-out: DRB1*04:01 binding capacity WT peptide (IC50 nM)): 646 nM
Compound: CC[C@H](C)[C@H](NC(=O)[C@@H](NC(=O)[C@@H](NC(=O)[C@H](CCCCN)NC(=O)CN)[C@@H](C)O)C(C)C)C(=O)N[C@@H](CCC(=O)O)C(=O)N[C@@H](Cc1ccc(O)cc1)C(=O)N[C@@H](CCCNC(N)=O)C(=O)N[C@@H](CO)C(=O)N[C@@H](CCC(N)=O)C(=O)N[C@@H](CCCCN)C(=O)N[C@H](C(=O)N[C@@H](CO)C(=O)N[C@@H](CCCNC(=N)N)C(=O)N[C@@H](CC(C)C)C(=O)O)[C@@H](C)O [GKTVIEYXSQKTSRL] (H-GKTVIEY[Cit]SQKTSRL-OH)

IC50 (HLA-DRB1*01:01; [1]): 28 nM
Compound: CC(C)C[C@H](NC(=O)CNC(=O)[C@H](CCCNC(=N)N)NC(=O)[C@@H](N)CCC(=O)O)C(=O)N[C@@H](CCCCN)C(=O)NCC(=O)N[C@@H](Cc1c[nH]cn1)C(=O)N[C@@H](CCCNC(N)=O)C(=O)NCC(=O)N[C@@H](Cc1ccccc1)C(=O)N[C@H](C(=O)NCC(=O)N[C@@H](CC(C)C)C(=O)N[C@@H](CCC(N)=O)C(=O)NCC(=O)O)[C@@H](C)O [ERGLKGHXGFTGLQG] (H-ERGLKGH[Cit]GFTGLQG-OH)
